These are literature values, as cited in patent US20120189710A1, “ANTIBACTERIAL COMPOSITIONS” (priority 2009, published 2012).

Consider `C=CCSC[C@H](N)C(=O)O` [SAC, S-allyl cysteine], for which the water solubility entry is “water soluble”.
